Reference: EP0452101B1, “Spiro bridged and unbridged heterocyclic compounds” (ISRAEL INSTITUTE FOR BIOLOGICAL RESEARCH, priority 1990, dated 1991)
Several values for one entry are separate records, joined by “and”; a condition that tells them apart may be missing. Equal values may be shown once. Read-outs that look alike come from different tables or passages of the source.

Key:
M2 muscarinic receptors = molecular target: T1, M2 muscarinic receptors (Rattus norvegicus, UniProt P10980); assay: Displacement of 3H-QNB from rat cerebellum, 50 mM phosphate buffer; type: binding
T1 construct: displacing from rat brain homogenates, cerebellum or frontal cortex; from tissue; host or cells: rat cerebellum homogenates
T1 sequence (P10980 1-466): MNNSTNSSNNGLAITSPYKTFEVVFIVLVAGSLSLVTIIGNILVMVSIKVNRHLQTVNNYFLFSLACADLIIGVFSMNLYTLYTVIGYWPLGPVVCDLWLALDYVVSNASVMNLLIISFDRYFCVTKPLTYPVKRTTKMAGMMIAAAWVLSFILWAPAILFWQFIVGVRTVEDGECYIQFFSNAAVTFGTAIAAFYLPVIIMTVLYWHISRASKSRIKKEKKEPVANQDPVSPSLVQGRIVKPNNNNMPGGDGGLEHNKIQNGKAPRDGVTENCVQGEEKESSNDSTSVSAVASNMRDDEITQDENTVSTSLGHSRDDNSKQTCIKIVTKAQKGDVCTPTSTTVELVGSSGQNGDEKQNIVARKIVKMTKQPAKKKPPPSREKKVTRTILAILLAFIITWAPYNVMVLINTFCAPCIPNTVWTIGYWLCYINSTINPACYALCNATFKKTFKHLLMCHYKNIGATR

M1 muscarinic receptor [1] = molecular target: T2, M1 muscarinic receptor (Rattus norvegicus, UniProt P08482); assay: Displacement of 3H-PZ from rat cerebral cortex, 10 mM phosphate buffer; type: binding; design: from tissue; host or cells: rat cerebral cortex homogenates; conditions: for RATIOS c:a: KH cerebellum (3H-QNB) : KH cortex (3H-PZ)
T2 sequence (P08482 1-460): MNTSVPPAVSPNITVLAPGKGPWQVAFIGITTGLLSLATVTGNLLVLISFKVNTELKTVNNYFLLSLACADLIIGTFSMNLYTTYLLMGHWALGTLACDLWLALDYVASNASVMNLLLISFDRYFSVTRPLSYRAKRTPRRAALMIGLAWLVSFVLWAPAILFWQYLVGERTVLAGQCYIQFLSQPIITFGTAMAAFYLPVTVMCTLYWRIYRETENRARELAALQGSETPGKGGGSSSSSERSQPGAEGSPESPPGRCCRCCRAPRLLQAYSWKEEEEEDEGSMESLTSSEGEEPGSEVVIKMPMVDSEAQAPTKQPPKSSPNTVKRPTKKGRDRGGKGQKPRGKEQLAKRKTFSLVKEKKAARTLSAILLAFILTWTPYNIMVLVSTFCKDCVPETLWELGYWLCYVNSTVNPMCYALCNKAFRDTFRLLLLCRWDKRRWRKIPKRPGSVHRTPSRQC

M1 muscarinic receptor [2] = molecular target: T2, M1 muscarinic receptor; assay: Displacement of 3H-QNB from rat cerebral cortex, 50 mM phosphate buffer; type: binding; conditions: for RATIOS c:a: KH2 cerebellum : KH1 cortex (3H-QNB); for % H1 / Ki: cortex, Table 5; for Ki: read-out: 3H-QNB-Binding KH1 (a)
scopolamine-treated rats = assay: Passive avoidance (PA) in scopolamine-treated rats; type: in vivo, Sprague-Dawley rats
Method: Naive male Sprague-Dawley rats, three months old (obtained from Charles River Breeding, U.K.), were used (weighing 200-300 g.). The passive avoidance (PA) test is according to Fisher et al, Neurosci. Lett. 102: 325 (1989), except that in these rats amnesia was induced by scopolamine.
Eight groups of 17-20 naive rats were used. Each group was divided into two subgroups of 7-10 rats each: subgroup 1 was injected with scopolamine HBr (0.5 mg./kg. in saline, s.c., 15 min. before the shock) and subgroup 2 was injected with saline (1 ml./kg., s.c., 15 min. before the shock). Seven of the groups were treated within one minute after the shock with one of the following doses of the tested compound: 0.1, 0.5, 1, 3, 5, 8, 10 mg./kg. (in saline, i.p.) and one group received saline (1 ml./kg., i.p.).
Eight groups of 18-20 naive rats each were used. Each group was divided into two subgroups of 9-10 rats each: subgroup 1 was injected with scopolamine HBr (0.5 mg./kg. in saline, s.c., 15 min. before the shock) and subgroup 2 was injected with saline (1 ml./kg., s.c., 15 min. before the shock). Seven of the groups were treated, within one minute after the shock, with one of the following doses of AF125(N): 0.1, 0.5, 1, 3, 5, 8 or 10 mg./kg. (in saline, i.p.) and one group received saline (1 ml./kg., i.p.).

[3] = test system: Male white mice of the CD-1 strain; assay: Pharmacodynamic profile and general toxicity, Part B (signs, mortality, LD50); type: in vivo; design: key to Altered spontaneous motor activity (Mot): increased (inc); decreased (dec); key to Piloerection (Pil) / Hypothermia (Hyp) / Salivation (Sal) / Lacrimation (Lac) / Diarrhea (Dia) / Mydriasis (Myd): sli = slight; mod = moderate; sev = severe; conditions: Table 10
From the text: Male white mice of the CD-1 strain (Charles River, UK), within the body weight range of 18-26 g, were used throughout this study, carried out on AF123, AF125 and AF125(N).
Furthermore, these initial trials clearly established that the major signs of reactions to treatment consisted primarily of signs characteristic for potential cholinomimetic activity of the test material, such as tremors, salivation, lacrimation, diarrhea, analgesia, hypothermia and vasodilation. […]

muscarinic receptors = assay: (-)3H-QNB binding to rat cerebral cortex homogenates with and without Cu++ treatment; conditions: for Ki: read-out: KL
[4] = cortex, Table 4, read-out: 3H-PZ-Binding KH (a)
[5] = post-shock AF125(N) 0.1 mg/kg i.p., pre-shock Scopolamine
[6] = post-shock AF125(N) 0.1 mg/kg i.p., pre-shock saline
[7] = post-shock AF125(N) 0.5 mg/kg i.p., pre-shock Scopolamine, 0.5 mg/kg
[8] = post-shock AF125(N) 0.5 mg/kg i.p., pre-shock saline
[9] = post-shock AF125(N) 1.0 mg/kg i.p., pre-shock Scopolamine
[10] = post-shock AF125(N) 1.0 mg/kg i.p., pre-shock saline
[11] = post-shock AF125(N) 3.0 mg/kg i.p., pre-shock Scopolamine
[12] = post-shock AF125(N) 3.0 mg/kg i.p., pre-shock saline
[13] = post-shock AF125(N) 5.0 mg/kg i.p., pre-shock Scopolamine
[14] = post-shock AF125(N) 5.0 mg/kg i.p., pre-shock saline, 5 mg/kg
[15] = post-shock AF125(N) 8.0 mg/kg i.p., pre-shock Scopolamine
[16] = post-shock AF125(N) 8.0 mg/kg i.p., pre-shock saline
[17] = post-shock AF125(N) 10.0 mg/kg i.p., pre-shock Scopolamine
[18] = post-shock AF125(N) 10.0 mg/kg i.p., pre-shock saline
[19] = 20 mg/kg i.v., animals affected/treated
[20] = with Cu++ pretreatment (100 µM, 30 minutes)

c1ccc(C2=NCC3(CN4CCC3CC4)O2)cc1 (centres unmarked) [AF125(Ph), 2-Phenyl-spiro(1,3-oxazoline-5,3')quinuclidine]
% H (M2 muscarinic receptors; cerebellum, Table 4): 100%
Ki (M2 muscarinic receptors; cerebellum, Table 4, read-out: 3H-QNB-Binding KH (c)): 1370 nM
% H2 (M2 muscarinic receptors; cerebellum, Table 5): 100%
Ki (M2 muscarinic receptors; cerebellum, Table 5, read-out: 3H-QNB-Binding KH2 (c)): 1370 nM
RATIOS c:a (M1 muscarinic receptor [1]): 17.1
% H (M1 muscarinic receptor [1]; cortex, Table 4): 100%
Ki (M1 muscarinic receptor [1]; [4]): 80 nM
RATIOS c:a (M1 muscarinic receptor [2]): 1.7
% H1 (M1 muscarinic receptor [2]): 100%
Ki (M1 muscarinic receptor [2]): 800 nM

NC1=NCC2(CN3CCC2CC3)O1 (centres unmarked) [AF125(N), 2-Amino-spiro(1,3-oxazoline-5,3')quinuclidine]
% H (M2 muscarinic receptors; cerebellum, Table 4): 100%
% H2 (M2 muscarinic receptors; cerebellum, Table 5): 100%
Ki (M2 muscarinic receptors; read-out: 3H-QNB-Binding KH2 (c)): 50000 nM
Ki (M2 muscarinic receptors; read-out: 3H-QNB-Binding KH (c)): 5000 nM
RATIOS c:a (M1 muscarinic receptor [1]): 83
% H (M1 muscarinic receptor [1]; cortex, Table 4): 28%
%L (M1 muscarinic receptor [1]; cortex, Table 4): 72%
Ki (M1 muscarinic receptor [1]; [4]): 600 nM
Ki (M1 muscarinic receptor [1]; cortex, Table 4, read-out: 3H-PZ-Binding KL (b)): 3000 nM
doses with significant enhancing effect on retention latency (scopolamine-treated rats; i.p., scopolamine-treated rats): 0.5 mg/kg
Initial latency, Mean (scopolamine-treated rats; [5]): 22.3 s
Retention latency, Mean (scopolamine-treated rats; [5]): 199.7 s
Initial latency, Mean (scopolamine-treated rats; [6]): 21.0 s
Retention latency, Mean (scopolamine-treated rats; [6]): 554.7 s
Initial latency, Mean (scopolamine-treated rats; [7]): 62.9 ± 17.4 s and 62.9 s
Retention latency, Mean (scopolamine-treated rats; [7]): 332.7±80.9 sec. and 332.7* sec.
Initial latency, Mean (scopolamine-treated rats; [8]): 28.1 s
Retention latency, Mean (scopolamine-treated rats; [8]): 600.0 s
Initial latency, Mean (scopolamine-treated rats; [9]): 29.1 s
Retention latency, Mean (scopolamine-treated rats; [9]): 114.8 s
Initial latency, Mean (scopolamine-treated rats; [10]): 22.0 s
Retention latency, Mean (scopolamine-treated rats; [10]): 448.9 s
Initial latency, Mean (scopolamine-treated rats; [11]): 23.1 s
Retention latency, Mean (scopolamine-treated rats; [11]): 243.4 s
Initial latency, Mean (scopolamine-treated rats; [12]): 44.1 s
Retention latency, Mean (scopolamine-treated rats; [12]): 500.1 s
Initial latency, Mean (scopolamine-treated rats; [13]): 24.6 s
Retention latency, Mean (scopolamine-treated rats; [13]): 181.6 s
Initial latency, Mean (scopolamine-treated rats; [14]): 65.1 ± 18.5 s and 65.1 s
Retention latency, Mean (scopolamine-treated rats; [14]): 290.3 ± 52.1 s and 290.3 s
Initial latency, Mean (scopolamine-treated rats; [15]): 16.3 s
Retention latency, Mean (scopolamine-treated rats; [15]): 210.2 s
Initial latency, Mean (scopolamine-treated rats; [16]): 19.3 s
Retention latency, Mean (scopolamine-treated rats; [16]): 552.0 s
Initial latency, Mean (scopolamine-treated rats; [17]): 21.5 s
Retention latency, Mean (scopolamine-treated rats; [17]): 129.7 s
Initial latency, Mean (scopolamine-treated rats; [18]): 4.9 s
Retention latency, Mean (scopolamine-treated rats; [18]): 417.5 s
Altered spontaneous motor activity (Mot) ([3]; 20 mg/kg i.v.): dec
Mortality no. ([3]; 20 mg/kg i.v.): 0/5
Mydriasis (Myd) ([3]; 20 mg/kg i.v.): sli
Salivation (Sal) ([3]; 20 mg/kg i.v.): sli
Respiratory distress (Res) [3, 19]: 4/5
Tremors (Tre) [3, 19]: 3/5
Mortality no. ([3]; 50 mg/kg i.v.): 5/5
Mortality time ([3]; 50 mg/kg i.v.): immed
Mortality no. ([3]; 100 mg/kg i.v.): 5/5
Mortality time ([3]; 100 mg/kg i.v.): immed
Altered spontaneous motor activity (Mot) ([3]; 200 mg/kg p.os): inc
Mortality no. ([3]; 200 mg/kg p.os): 0/5
Mydriasis (Myd) ([3]; 200 mg/kg p.os): sli
RATIOS c:a (M1 muscarinic receptor [2]): 0.4
% H1 (M1 muscarinic receptor [2]): 100%
Ki (M1 muscarinic receptor [2]): 112000 nM

CN1[C@@H]2C[C@@H](OC(=O)[C@H](CO)c3ccccc3)C[C@H]1[C@@H]1O[C@@H]12 [Scopolamine]
%H (% of high affinity state) (muscarinic receptors; [20]): 0%
Ki (muscarinic receptors; with Cu++ pretreatment): 0.1 ± 0.005 nM
%H (% of high affinity state) (muscarinic receptors; without pretreatment): 0%
Ki (muscarinic receptors; without pretreatment): 0.09 ± 0.004 nM

CN1[C@@H]2CC[C@H]1C[C@@H](OC(=O)C(CO)c1ccccc1)C2 (some centres unmarked) [Atropine]
%H (% of high affinity state) (muscarinic receptors): 0%

CN1CCN(CC(=O)N2c3ccccc3C(=O)Nc3cccnc32)CC1 [Pirenzepine]
%H (% of high affinity state) (muscarinic receptors; [20]): 64±6%
%H (% of high affinity state) (muscarinic receptors; without pretreatment): 72±3%
